Reference: the supplement of paper PMC5770543
± gives the standard deviation.

Key:
[1] = target: Toxoplasma gondii RH tachyzoites; assay: EC50 growth inhibition (48 h luciferase)
[2] = tested on: Toxoplasma gondii RH tachyzoites; assay: % growth inhibition vs DMSO (48 h luciferase); higher = more inhibition; settings: 10 µM
[3] = tested on: Plasmodium falciparum 3D7; assay: EC50 growth inhibition (60 h, SYBR Green); settings: stage: ring-stage start
[4] = tested on: Plasmodium falciparum 3D7; assay: % inhibition of schizont-to-ring transition vs DMSO; higher = more inhibition
Summary of the method: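 Schizont-to-ring transition inhibition compares new ring formation with that in vehicle controls. Synchronised P. falciparum schizonts (about 40–42 hours post-invasion, 1% parasitemia, 2.5% hematocrit, AlbuMAX-supplemented RPMI) were exposed to 1, 3 or 10 µM compound, after which rings were counted by Hoechst 33342 flow cytometry across three experiments.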

[5] = tested on: Toxoplasma gondii RH tachyzoites; assay: plaque count per well; higher = less inhibition; extreme values may be limits of the assay; settings: 10 µM; 8-10 days
Procedure: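 T. gondii RH tachyzoites expressing firefly luciferase were grown in HFF monolayers for 48 h with compound. % growth inhibition at 10 µM and EC50 (2-fold dilutions from 10 µM) were read by luminescence relative to 1% DMSO; EC50 listed as 10 (not determined, <80% inhibition) is left out. Plaque assays: 50 tachyzoites per well with 10 µM compound for 8-10 days, giving plaque count and area by crystal violet/ImageJ. Egress: median time to egress after 1 µM A23187 ionophore following 24 h of 10 µM compound (DMSO ~1.8 min; >10 = no egress within 10 min).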
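Throughout, for % growth inhibition vs DMSO (48 h luciferase): tested in triplicate wells of 96-well plates on confluent HFF monolayers, with 1% DMSO wells as negative control in four replicates.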

SMILES | EC50 growth inhibition [1] [nM] | % growth inhibition [2] [%] | EC50 growth inhibition [3] [nM] | % inhibition of schizont-to-ring transition ([4]; 1 µM) [%] | % inhibition of schizont-to-ring transition ([4]; 3 µM) [%] | % inhibition of schizont-to-ring transition ([4]; 10 µM) [%] | plaque count per well [5]
CC(Oc1ccc(NC(=O)c2cccs2)cc1)C(=O)c1ccc(Cl)cc1 (stereo not drawn) | 257 | 98.06 ± 0.7 | 462 | 17.7 | 30.4 | 47.3 | –
CC1CC2=C(CC1CNCCCN(C)C)C(C)(C)CCC2 (stereo not drawn) | 3170 | 99.59 ± 0.27 | 618 | 9.39 | 52.2 | 73.9 | –
O=C(Nc1cccc(C(F)(F)F)c1)c1cc(Cl)ccc1O | 9.2 | 99.77 ± 0.14 | 3770 | < 0 | 20.2 | 51.6 | –
CCN(CC)CCn1c(=N)n(CC(O)c2ccc(Cl)c(Cl)c2)c2ccccc21 (stereo not drawn) | 1310 | 85.7 ± 6.1 | 267 | 51 | 73.3 | 78.2 | –
Cc1ccnc(NC(c2cccc(OCc3ccccc3)c2)c2ccc3cccnc3c2O)c1 (stereo not drawn) | 786 | 98.51 ± 0.34 | 886 | 17.5 | 41.1 | 62.9 | –
COc1ccc(Nc2cc(C)nc(NCc3ccccc3)n2)cc1 | 653 | 98.67 ± 0.18 | 115 | 30.2 | 34.6 | 60 | –
Cc1ccc(S(=O)(=O)c2c(COC(=O)c3cccc(C)c3)c(-c3ccccc3)nn2C)cc1 | 2060 | 99.44 ± 0.48 | – | < 0 | 1.67 | 32.1 | –
CCOc1ccc(CN2CCN(CC(O)COc3ccc(OCC(O)CN4CCN(Cc5ccc(OCC)cc5)CC4)cc3)CC2)cc1 (stereo not drawn) | – | 4.15 ± 5.8 | 3120 | < 0 | 14.6 | 59.9 | 0
COc1cccc(C(=O)NC(c2ccc(C)cc2)c2cc(Cl)c3cccnc3c2O)c1 (stereo not drawn) | – | < 0 | 7640 | 30.4 | 42.1 | 49.9 | 0
COc1ccc(CN2CCCC(C(=O)c3ccc(C(F)(F)F)cc3)C2)c(O)c1 (stereo not drawn) | – | < 0 | 912 | 9.13 | 32 | 51.1 | 20
COc1ccc(-c2c(C)nn3c(N)c(C#N)cnc23)cc1OC | – | 7.54 ± 13 | 3710 | 71.1 | 74.9 | 76.1 | 22
COc1ccc(C(=O)Nc2nonc2-c2ccc(OC)c(OC)c2)cc1Cl | – | 1.09 ± 1.9 | 420 | 35.7 | 67.3 | 69.4 | 20
CN(C)c1ccc(N2C(N)=NC(N)=NC2(C)C)cc1 | – | < 0 | 5680 | 7.46 | 13.2 | 46.8 | 23
O=C(Nc1ccc(CN2CCOCC2)cc1)c1ccc(-c2ccc(Br)cc2)o1 | – | 8.26 ± 14 | 1420 | 40.3 | 45.9 | 59.2 | 30
CCOc1cc2c(cc1OCC)C(c1cc(C)c(O)c(C)c1)NCC2 (stereo not drawn) | – | 14.9 ± 14 | 792 | 6.53 | 17.1 | 43.5 | 31
CCc1ccc(CNCC(O)c2ccccc2)cc1 (stereo not drawn) | – | < 0 | 4010 | 12.2 | 14.9 | 45.9 | 21
COc1ccc(C(=O)NC(c2ccccc2Cl)c2cc(Cl)c3cccnc3c2O)cc1 (stereo not drawn) | 592 | 96.55 ± 0.71 | – | 13.2 | 31.2 | 57.7 | –
CC1CCN(Cc2ccc(NC(=O)c3cc4ccc5cccnc5c4[nH]3)cc2)CC1 | – | < 0 | 241 | 42.3 | 50 | 55.4 | 18
O=C(CSc1ccc2nnc(-c3cccc(F)c3)n2n1)Nc1ccc2c(c1)OCO2 | – | 15.9 ± 9.8 | 6570 | 32 | 49.9 | 72.7 | 25
c1ccc(-c2ccc(-c3nc4ccccc4[nH]3)cc2)cc1 | – | 12.3 ± 15 | 928 | 8.54 | 24.5 | 41 | 0
CN1CCN(c2nc(Nc3ccc(O)cc3)nc3ccccc23)CC1 | – | < 0 | 1260 | 34.7 | 33.4 | 52.2 | 29
COc1cccc(Nc2nc(N)c3ccccc3n2)c1 | – | < 0 | 1320 | < 0 | 12.3 | 41.7 | 0
Cc1cc(C)c2nc(N3CCC(C(=O)NCCCN4CCC(N5CCCCC5)CC4)CC3)sc2c1 | – | < 0 | 1080 | 18.8 | 46.7 | 59.8 | 16
O=C(CCc1ccco1)NC1CCN(CC2(c3ccc(Cl)cc3)CCC2)CC1 | – | < 0 | 509 | 18.8 | 41 | 67.5 | 23
C[n+]1c2ccccc2nc2ccc(NCCO)cc21 | – | < 0 | 96.4 | 33.2 | 48.3 | 65.4 | 0
